ChEMBL document CHEMBL3259648, “Synthesis and in vitro evaluation of anti-inflammatory activity of ester and amine derivatives of indoline in RAW 264.7 and peritoneal macrophages” (Bioorg Med Chem Lett, 2014)
The source made the active and inactive calls. No cut-off for these calls is given here.

Tests used:
[1] = tested on: Peritoneal macrophage cell; assay: Antiinflammatory activity in C57bl/6 mouse peritoneal macrophages assessed as reduction in LPS-induced TNF-alpha production at >=1 pM treated for 30 mins prior to LPS challenge measured after 6 hrs by ELISA; type: functional, cell-based
RAW264.7 [2] = assay: Antiinflammatory activity in mouse RAW264.7 cells assessed as reduction in LPS-induced NaNO2 release at 1 nM treated for 30 mins prior to LPS challenge measured after 24 hrs by griess reaction assay relative to melatonin; type: functional
[3] = tested on: Peritoneal macrophage cell; assay: Antiinflammatory activity in C57bl/6 mouse peritoneal macrophages assessed as reduction in LPS-induced IL-6 production at >=10 pM treated for 30 mins prior to LPS challenge measured after 24 hrs by ELISA; type: functional, cell-based
[4] = Cytotoxicity against C57bl/6 mouse peritoneal macrophages assessed as cell viability at 10 pM to 10 uM by MTT assay; type: cell-based; conditions: peritoneal macrophage cell
RAW264.7 [5] = assay: Cytotoxicity against mouse RAW264.7 cells assessed as cell viability at 10 pM to 10 uM by MTT assay; type: cell-based
Cholinesterase = Cholinesterase (Equus caballus, UniProt P81908); assay: Inhibition of BuChE in equine serum using butylthiocholine iodide as substrate by Ellman's method
Acetylcholinesterase = target: T1, Acetylcholinesterase (Bos taurus, UniProt P23795); assay: Inhibition of AChE in bovine erythrocytes using acetylthiocholine iodide as substrate by Ellman's method
T1 sequence (P23795 whole entry): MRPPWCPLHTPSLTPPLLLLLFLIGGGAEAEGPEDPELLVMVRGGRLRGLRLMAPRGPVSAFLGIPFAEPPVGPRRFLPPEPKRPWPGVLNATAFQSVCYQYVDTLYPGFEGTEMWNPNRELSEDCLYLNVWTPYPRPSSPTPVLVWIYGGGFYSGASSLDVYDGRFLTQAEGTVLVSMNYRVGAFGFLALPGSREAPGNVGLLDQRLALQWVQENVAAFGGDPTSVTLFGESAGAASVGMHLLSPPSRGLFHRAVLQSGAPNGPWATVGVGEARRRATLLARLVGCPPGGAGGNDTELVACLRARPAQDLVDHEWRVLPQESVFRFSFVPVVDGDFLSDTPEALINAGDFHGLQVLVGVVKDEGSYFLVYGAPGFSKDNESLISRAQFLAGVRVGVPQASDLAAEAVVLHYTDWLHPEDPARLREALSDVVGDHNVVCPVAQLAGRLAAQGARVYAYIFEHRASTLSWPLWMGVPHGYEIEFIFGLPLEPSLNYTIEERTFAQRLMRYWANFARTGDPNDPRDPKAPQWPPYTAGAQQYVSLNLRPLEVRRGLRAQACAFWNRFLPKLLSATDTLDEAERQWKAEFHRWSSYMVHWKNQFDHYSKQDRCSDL

RAW264.7 [6] = assay: Antiinflammatory activity in mouse RAW264.7 cells assessed as reduction in LPS-induced NaNO2 release at 1 nM treated for 30 mins prior to LPS challenge measured after 24 hrs by griess reaction assay relative to budesonide; type: functional
RAW264.7 [7] = assay: Antiinflammatory activity in mouse RAW264.7 cells assessed as reduction in LPS-induced NaNO2 release at >=1 nM treated for 30 mins prior to LPS challenge measured after 24 hrs by griess reaction assay; type: functional, cell-based
[8] = tested on: Peritoneal macrophage cell; assay: Antiinflammatory activity in C57bl/6 mouse peritoneal macrophages assessed as reduction in LPS-induced IL-6 production at >=10 nM treated for 30 mins prior to LPS challenge measured after 24 hrs by ELISA; type: functional, cell-based
RAW264.7 [9] = assay: Antiinflammatory activity in mouse RAW264.7 cells assessed as reduction in LPS-induced NaNO2 release at >=10 pM treated for 30 mins prior to LPS challenge measured after 24 hrs by griess reaction assay; type: functional, cell-based
RAW264.7 [10] = assay: Antiinflammatory activity in mouse RAW264.7 cells assessed as reduction in LPS-induced NaNO2 release at 10 pM treated for 30 mins prior to LPS challenge measured after 24 hrs by griess reaction assay relative to melatonin; type: functional
RAW264.7 [11] = assay: Antiinflammatory activity in mouse RAW264.7 cells assessed as reduction in LPS-induced NaNO2 release at 10 pM treated for 30 mins prior to LPS challenge measured after 24 hrs by griess reaction assay relative to budesonide; type: functional
[12] = tested on: Peritoneal macrophage cell; assay: Antiinflammatory activity in C57bl/6 mouse peritoneal macrophages assessed as reduction in LPS-induced TNF-alpha production at >=10 nM treated for 30 mins prior to LPS challenge measured after 6 hrs by ELISA; type: functional, cell-based
[13] = tested on: Peritoneal macrophage cell; assay: Antiinflammatory activity in C57bl/6 mouse peritoneal macrophages assessed as reduction in LPS-induced TNF-alpha production at >=10 pM treated for 30 mins prior to LPS challenge measured after 6 hrs by ELISA; type: functional, cell-based
Mus musculus [14] = organism: Mus musculus; assay: Inhibition of ERK phosphorylation in LPS-activated C57bl/6 mouse peritoneal macrophages at 0.1 nM treated for 30 mins prior to LPS challenge by immunoblot analysis
Mus musculus [15] = organism: Mus musculus; assay: Inhibition of JNK phosphorylation in LPS-activated C57bl/6 mouse peritoneal macrophages at 0.1 nM treated for 30 mins prior to LPS challenge by immunoblot analysis
[16] = target: T2, Inhibitor of nuclear factor kappa-B kinase subunit alpha (Mus musculus) (UniProt Q60680); assay: Inhibition of IkappaB alpha degradation in LPS-activated C57bl/6 mouse peritoneal macrophages at 0.1 nM treated for 30 mins prior to LPS challenge by immunoblot analysis
T2 sequence (whole entry): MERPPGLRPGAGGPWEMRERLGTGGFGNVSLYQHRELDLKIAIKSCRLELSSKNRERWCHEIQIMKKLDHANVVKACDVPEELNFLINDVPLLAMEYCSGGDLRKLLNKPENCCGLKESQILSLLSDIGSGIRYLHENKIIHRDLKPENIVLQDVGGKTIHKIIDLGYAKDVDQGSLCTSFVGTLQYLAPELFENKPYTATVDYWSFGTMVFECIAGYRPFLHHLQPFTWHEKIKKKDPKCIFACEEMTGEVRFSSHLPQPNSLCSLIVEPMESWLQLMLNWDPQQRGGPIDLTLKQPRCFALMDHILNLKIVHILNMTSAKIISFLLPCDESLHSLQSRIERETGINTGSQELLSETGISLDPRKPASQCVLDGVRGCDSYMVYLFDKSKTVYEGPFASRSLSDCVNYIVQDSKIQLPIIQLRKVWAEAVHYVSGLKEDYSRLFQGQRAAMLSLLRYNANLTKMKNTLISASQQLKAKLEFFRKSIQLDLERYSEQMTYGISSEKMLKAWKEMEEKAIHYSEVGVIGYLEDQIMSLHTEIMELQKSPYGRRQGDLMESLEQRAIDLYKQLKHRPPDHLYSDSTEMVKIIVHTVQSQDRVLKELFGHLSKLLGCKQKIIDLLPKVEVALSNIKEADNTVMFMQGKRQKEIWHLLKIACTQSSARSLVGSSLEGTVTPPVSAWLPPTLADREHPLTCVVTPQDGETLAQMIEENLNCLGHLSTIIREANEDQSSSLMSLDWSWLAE

[17] = target: MAP kinase p38 (Mus musculus) (UniProt P47811+O08911+Q9WUI1+Q9Z1B7); assay: Inhibition of p38 phosphorylation in LPS-activated C57bl/6 mouse peritoneal macrophages at 0.1 nM treated for 30 mins prior to LPS challenge by immunoblot analysis
[18] = tested on: Peritoneal macrophage cell; assay: Antiinflammatory activity in C57bl/6 mouse peritoneal macrophages assessed as reduction in LPS-induced TNF-alpha production at >=1 uM treated for 30 mins prior to LPS challenge measured after 6 hrs by ELISA; type: functional, cell-based
[19] = tested on: Peritoneal macrophage cell; assay: Antiinflammatory activity in C57bl/6 mouse peritoneal macrophages assessed as reduction in LPS-induced IL-6 production at >=1 nM treated for 30 mins prior to LPS challenge measured after 24 hrs by ELISA; type: functional, cell-based

Chain of Cholinesterase (P81908 whole entry): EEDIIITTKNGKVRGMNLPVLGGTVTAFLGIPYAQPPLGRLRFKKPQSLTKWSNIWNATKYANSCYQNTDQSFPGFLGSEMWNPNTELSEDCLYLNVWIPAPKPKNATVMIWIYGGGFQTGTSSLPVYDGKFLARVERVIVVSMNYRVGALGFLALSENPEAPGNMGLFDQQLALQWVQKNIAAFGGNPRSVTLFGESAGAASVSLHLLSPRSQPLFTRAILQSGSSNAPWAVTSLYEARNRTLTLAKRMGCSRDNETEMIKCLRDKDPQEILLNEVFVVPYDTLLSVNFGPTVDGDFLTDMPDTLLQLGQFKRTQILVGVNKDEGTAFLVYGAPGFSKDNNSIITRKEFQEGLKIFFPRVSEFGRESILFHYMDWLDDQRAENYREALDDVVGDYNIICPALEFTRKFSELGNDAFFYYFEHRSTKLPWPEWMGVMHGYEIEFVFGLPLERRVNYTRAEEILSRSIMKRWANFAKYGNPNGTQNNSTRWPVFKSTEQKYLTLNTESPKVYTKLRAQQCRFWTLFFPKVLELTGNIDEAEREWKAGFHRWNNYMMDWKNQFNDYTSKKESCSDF

SMILES: CCN(C)C(=O)Oc1ccc2c(c1)NCC2CCCN.Cl (stereo not given)
- inhibition [1]: Active
- fold change (FC) (RAW264.7 [2]): 100
- inhibition [3]: Active
- Activity [4]: Non-toxic
- Activity (RAW264.7 [5]): Non-toxic
- IC50 (Cholinesterase): 4700 nM
- IC50 (Acetylcholinesterase): 36 µM
- fold change (FC) (RAW264.7 [6]): 10
- inhibition (RAW264.7 [7]): Active

SMILES: CCN(C)C(=O)Oc1cccc2c1CCN2CCC(=O)OC.Cl
- inhibition [8]: Active
- inhibition (RAW264.7 [9]): Active
- Activity [4]: Non-toxic
- Activity (RAW264.7 [5]): Non-toxic
- IC50 (Cholinesterase): 700 nM
- fold change (FC) (RAW264.7 [10]): 100
- fold change (FC) (RAW264.7 [11]): 10
- inhibition [12]: Active

SMILES: CCN(C)C(=O)Oc1cccc2c1C(CCCN)CN2.Cl (stereo not given)
- inhibition [1]: Active
- fold change (FC) (RAW264.7 [2]): 100
- inhibition [3]: Active
- Activity [4]: Non-toxic
- Activity (RAW264.7 [5]): Non-toxic
- IC50 (Cholinesterase): 1200 nM
- IC50 (Acetylcholinesterase): 1.8 µM
- fold change (FC) (RAW264.7 [6]): 10
- inhibition (RAW264.7 [7]): Active

SMILES: CCN(C)C(=O)Oc1ccc2c(c1)N(CCCN(C)C)CC2.Cl
- fold change (FC) (RAW264.7 [2]): 100
- inhibition [8]: Active
- Activity [4]: Non-toxic
- Activity (RAW264.7 [5]): Non-toxic
- IC50 (Cholinesterase): 4270 nM
- IC50 (Acetylcholinesterase): 48 µM
- fold change (FC) (RAW264.7 [6]): 10
- inhibition (RAW264.7 [7]): Active
- inhibition [13]: Active

SMILES: CCN(C)C(=O)Oc1cccc2c1C(CCC(=O)OC)CN2.Cl (stereo not given)
- inhibition [1]: Active
- inhibition [3]: Active
- inhibition (RAW264.7 [9]): Active
- Activity [4]: Non-toxic
- Activity (RAW264.7 [5]): Non-toxic
- IC50 (Cholinesterase): 300 nM
- inhibition (Mus musculus [14]): inactive
- fold change (FC) (RAW264.7 [10]): 100
- inhibition (Mus musculus [15]): inactive
- inhibition [16]: Active
- inhibition [17]: Active
- fold change (FC) (RAW264.7 [11]): 10

SMILES: CCN(C)C(=O)Oc1cccc2c1CCN2CCCN(C)C.Cl
- fold change (FC) (RAW264.7 [2]): 100
- inhibition [8]: Active
- Activity [4]: Non-toxic
- Activity (RAW264.7 [5]): Non-toxic
- IC50 (Cholinesterase): 900 nM
- IC50 (Acetylcholinesterase): 3.7 µM
- fold change (FC) (RAW264.7 [6]): 10
- inhibition (RAW264.7 [7]): Active
- inhibition [13]: Active

SMILES: CCN(C)C(=O)Oc1ccc2c(c1)N(CCC(=O)OC)CC2.Cl
- inhibition [8]: Active
- inhibition [18]: Active
- Activity [4]: Non-toxic
- Activity (RAW264.7 [5]): Non-toxic
- IC50 (Cholinesterase): 6780 nM

SMILES: CCN(C)C(=O)Oc1cccc2c1C(CCN)CN2.Cl.Cl (stereo not given)
- inhibition [1]: Active
- inhibition [3]: Active
- inhibition (RAW264.7 [9]): Active
- Activity [4]: Non-toxic
- Activity (RAW264.7 [5]): Non-toxic
- IC50 (Cholinesterase): 200 nM
- fold change (FC) (RAW264.7 [10]): 100
- fold change (FC) (RAW264.7 [11]): 10

SMILES: CCN(C)C(=O)Oc1ccc2c(c1)NCC2CCN(C)C.Cl (stereo not given)
- fold change (FC) (RAW264.7 [2]): 100
- inhibition [8]: Active
- Activity [4]: Non-toxic
- Activity (RAW264.7 [5]): Non-toxic
- IC50 (Cholinesterase): 2200 nM
- IC50 (Acetylcholinesterase): 21.3 µM
- fold change (FC) (RAW264.7 [6]): 10
- inhibition (RAW264.7 [7]): Active
- inhibition [13]: Active

SMILES: CCN(C)C(=O)Oc1cccc2c1C(CCN(C)C)CN2.Cl (stereo not given)
- inhibition [8]: Active
- inhibition (RAW264.7 [9]): Active
- Activity [4]: Non-toxic
- Activity (RAW264.7 [5]): Non-toxic
- IC50 (Cholinesterase): 310 nM
- IC50 (Acetylcholinesterase): 1.3 µM
- fold change (FC) (RAW264.7 [10]): 100
- inhibition [13]: Active
- fold change (FC) (RAW264.7 [11]): 10

SMILES: CCN(C)C(=O)Oc1ccc2c(c1)NCC2CCC(=O)OC.Cl (stereo not given)
- inhibition [1]: Active
- inhibition [19]: Active
- inhibition (RAW264.7 [9]): Active
- Activity [4]: Non-toxic
- Activity (RAW264.7 [5]): Non-toxic
- IC50 (Cholinesterase): 3900 nM
- fold change (FC) (RAW264.7 [10]): 100
- fold change (FC) (RAW264.7 [11]): 10
